Source: BindingDB's records for doi:10.1016/s0960-894x(98)00169-3 (Merck Research Laboratories, 1999)

Target: Beta-2 adrenergic receptor (Homo sapiens, UniProt P07550)
Assay: Compound was tested for agonist activity against cloned human beta-2 adrenergic receptor at a concentration of 1000 nM

Beta-2 adrenergic receptor, sequence (P07550 whole entry): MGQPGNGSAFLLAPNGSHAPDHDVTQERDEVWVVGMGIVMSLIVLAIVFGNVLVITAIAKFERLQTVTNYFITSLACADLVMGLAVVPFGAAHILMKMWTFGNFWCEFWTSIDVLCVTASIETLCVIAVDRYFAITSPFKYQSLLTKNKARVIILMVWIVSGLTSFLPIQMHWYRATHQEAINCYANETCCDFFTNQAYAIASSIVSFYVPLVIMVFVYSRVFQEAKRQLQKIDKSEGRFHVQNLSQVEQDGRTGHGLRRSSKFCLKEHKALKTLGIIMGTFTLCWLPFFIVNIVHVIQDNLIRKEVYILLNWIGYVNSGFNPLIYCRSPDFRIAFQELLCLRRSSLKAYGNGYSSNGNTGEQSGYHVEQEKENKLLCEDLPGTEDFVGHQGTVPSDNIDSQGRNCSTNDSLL

- EC50: < 0.1 nM
SMILES: COc1ccc(CC[C@H](C)NC[C@@H](O)COc2ccc(O)cc2)cc1 [4-{(R)-2-Hydroxy-3-[(S)-3-(4-methoxy-phenyl)-1-methyl-propylamino]-propoxy}-phenol]
